Publication PMC5402990 (PLoS Neglected Tropical Diseases, 2017)

Biological target: PIKfyve (Homo sapiens, UniProt Q9Y2I7)
Assay type: cell-based

PIKfyve, sequence (Q9Y2I7 whole entry, species assumed): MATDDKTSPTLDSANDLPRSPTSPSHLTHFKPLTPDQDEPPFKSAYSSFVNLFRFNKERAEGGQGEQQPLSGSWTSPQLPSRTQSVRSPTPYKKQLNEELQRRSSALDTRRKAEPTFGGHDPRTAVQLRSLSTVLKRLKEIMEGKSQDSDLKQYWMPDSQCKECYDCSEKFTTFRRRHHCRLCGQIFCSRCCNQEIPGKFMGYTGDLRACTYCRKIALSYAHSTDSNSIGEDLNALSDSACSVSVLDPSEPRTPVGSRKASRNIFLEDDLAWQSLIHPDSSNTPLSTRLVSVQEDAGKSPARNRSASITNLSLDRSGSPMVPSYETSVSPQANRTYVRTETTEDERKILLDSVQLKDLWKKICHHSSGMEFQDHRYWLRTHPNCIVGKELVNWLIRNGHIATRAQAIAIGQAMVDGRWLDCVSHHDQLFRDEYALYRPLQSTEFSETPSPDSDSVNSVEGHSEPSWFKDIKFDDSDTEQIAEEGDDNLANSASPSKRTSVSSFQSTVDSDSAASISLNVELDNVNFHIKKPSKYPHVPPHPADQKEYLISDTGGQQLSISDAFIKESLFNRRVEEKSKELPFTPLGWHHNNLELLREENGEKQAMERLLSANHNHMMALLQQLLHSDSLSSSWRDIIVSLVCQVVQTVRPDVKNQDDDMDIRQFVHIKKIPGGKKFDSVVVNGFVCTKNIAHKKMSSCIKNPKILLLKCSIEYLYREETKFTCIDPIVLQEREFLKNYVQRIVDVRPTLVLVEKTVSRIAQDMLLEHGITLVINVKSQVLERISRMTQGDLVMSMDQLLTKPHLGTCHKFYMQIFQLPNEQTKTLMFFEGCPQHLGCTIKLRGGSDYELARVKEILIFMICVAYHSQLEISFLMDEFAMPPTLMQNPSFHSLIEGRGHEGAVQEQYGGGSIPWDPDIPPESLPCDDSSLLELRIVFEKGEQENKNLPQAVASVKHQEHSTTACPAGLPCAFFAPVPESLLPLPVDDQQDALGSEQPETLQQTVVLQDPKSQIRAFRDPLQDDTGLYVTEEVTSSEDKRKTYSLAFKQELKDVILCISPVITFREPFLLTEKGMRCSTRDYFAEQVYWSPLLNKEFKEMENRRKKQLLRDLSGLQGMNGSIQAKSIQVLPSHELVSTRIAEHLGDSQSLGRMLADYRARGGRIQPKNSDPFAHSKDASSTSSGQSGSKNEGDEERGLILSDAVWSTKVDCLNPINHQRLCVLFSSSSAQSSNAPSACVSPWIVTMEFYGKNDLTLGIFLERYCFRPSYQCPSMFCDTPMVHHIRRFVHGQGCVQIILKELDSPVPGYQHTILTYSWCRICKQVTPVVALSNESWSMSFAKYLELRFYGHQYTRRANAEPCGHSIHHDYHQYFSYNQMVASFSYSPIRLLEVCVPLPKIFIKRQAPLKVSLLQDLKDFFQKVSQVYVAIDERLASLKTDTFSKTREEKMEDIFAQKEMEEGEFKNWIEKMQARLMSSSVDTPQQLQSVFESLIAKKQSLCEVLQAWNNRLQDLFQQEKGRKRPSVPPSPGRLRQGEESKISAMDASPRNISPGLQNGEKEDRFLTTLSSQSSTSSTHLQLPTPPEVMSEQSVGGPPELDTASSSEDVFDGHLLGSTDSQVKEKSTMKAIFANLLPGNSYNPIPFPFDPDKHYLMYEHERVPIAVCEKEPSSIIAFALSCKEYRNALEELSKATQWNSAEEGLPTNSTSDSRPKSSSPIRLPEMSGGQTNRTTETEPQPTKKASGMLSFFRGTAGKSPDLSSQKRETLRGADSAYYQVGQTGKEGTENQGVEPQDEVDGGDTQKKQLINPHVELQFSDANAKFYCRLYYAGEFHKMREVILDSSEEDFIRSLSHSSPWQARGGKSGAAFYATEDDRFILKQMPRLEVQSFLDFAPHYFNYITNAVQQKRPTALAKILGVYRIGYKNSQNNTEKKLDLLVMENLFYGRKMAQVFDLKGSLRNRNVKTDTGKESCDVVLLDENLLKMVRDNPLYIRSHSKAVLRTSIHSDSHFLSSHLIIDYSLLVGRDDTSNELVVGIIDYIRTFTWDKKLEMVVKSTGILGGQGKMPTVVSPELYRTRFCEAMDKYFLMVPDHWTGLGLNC

For `Cc1cccc(/C=N/Nc2cc(N3CCOCC3)nc(OCCc3ccccn3)n2)c1` [Apilimod, apilimod], which “dose needed to inhibit EBOV GP-mediated infection in GFP-PIKfyve vs. GFP expressing cells” value is on record?
The value was “higher doses of apilimod were needed to achieve similar levels of inhibition”.
